“Also recorded” adds a separate entry of the source. Where two headings read alike, the source gives them in different places.
Legend:
[1] = ORBIT-3 and RESPIRE-2 trials; cited from earlier work
[2] = 1 MIU [33 mg CBA] via I-neb twice a day, up to 6 months, placebo 0.45% saline, cited from earlier work
Pseudomonas aeruginosa = experiment: PROMIS I: Pseudomonas aeruginosa density in sputum; assay type: in vivo, human; settings: for Mean change from baseline in P. aeruginosa density (mITT): n = 176
Source text: Least square means in each treatment group, least square mean difference between treatments, their 95% CIs and associated p-values will be estimated.
Summary statistics of the P. aeruginosa density (log 10 CFU/g sputum) and change from baseline (Visit 2) will be provided by treatment group for each trial visit.
Results of the quantitative analysis for P. aeruginosa density will be presented as colony forming units (CFU) count per gram sputum.

[3] = human, in vivo; cited from earlier work
[4] = parameters: species or system human; settings: in vivo
Source text: Safety Variables • incidence of TEAEs; • absolute changes in percent-predicted FEV1 from baseline (Visit 2) to end of treatment (Visit 7); • number of subjects experiencing bronchospasm clinically or spirometrically determined following IMP administration at the start and end of treatment; • P. aeruginosa resistance to colistin sulphate as determined by in-vitro susceptibility testing on sputum from Screening/Randomisation (Visit 1/Visit 2) to Visits 3, 5 and end of treatment (Visit 7) as well as on sputum from Exacerbation Visits and clinic visits due to pneumonia; • emergence of other bacterial colonies and any developing resistance in sputum from Screening (Visit 1) to End of Treatment (Visit 7); • haematology, clinical chemistry and renal function tests; • physical examination and vital signs data; • 12-lead electrocardiogram

[5] = PROMIS I Phase III clinical study: pulmonary exacerbations under inhaled CMS by I-neb vs placebo; assay type: in vivo, human

Row | Compound | primary endpoints [1] | time to first exacerbation (primary endpoint) vs placebo [2] | Mean change from baseline in P. aeruginosa density (mITT) (Pseudomonas aeruginosa; Visit 3 (28 days)) | Mean change from baseline in P. aeruginosa density (mITT) (Pseudomonas aeruginosa; Visit 5 (6 months)) | Mean change from baseline in P. aeruginosa density (mITT) (Pseudomonas aeruginosa; Visit 6 (9 months)) | Mean change from baseline in P. aeruginosa density (mITT) (Pseudomonas aeruginosa; Visit 7 (12 months/EOT), includes those who discontinued early) | P. aeruginosa density (in words) (Pseudomonas aeruginosa; patients on colistimethate sodium over the study) | time to first exacerbation (primary endpoint) vs placebo ([2]; listed as CMS) | adverse respiratory effects (cough, dyspnoea, bronchospasm, sore throat), people affected [3] | broncospasm experienced clinically [4] [%] | safety and tolerability (in words) [4] | annual rate of exacerbations ([5]; CMS 1 MIU (33 mg CBA) by I-neb twice a day, 12 months, placebo 0.95) [per patient per year] | severe exacerbations (requiring intravenous antibiotics and/or hospitalization), RR ([5]; CMS I-neb vs placebo, 95% CI 0.23-0.74, p=0.003) | time to first exacerbation, Hazard Ratio (HR) ([5]; CMS I-neb vs placebo, 95% CI 0.43-0.81, p=0.00074) | rate ratio (RR) of annual rate of exacerbations vs placebo ([5]; CMS I-neb vs placebo, 95% CI 0.46-0.82, p=0.00101)
1 | O=C(O)c1cn(C2CC2)c2cc(N3CCNCC3)c(F)cc2c1=O [ciprofloxacin] | failed to achieve their primary endpoints |  |  |  |  |  |  |  |  |  |  |  |  |  | 
2 | colistin |  | not to be associated with a statistically significant improvement |  |  |  |  |  |  |  |  |  |  |  |  | 
3 | colistimethate sodium |  | not statistically different | −1.59 log10(CFU/mL) | −1.39 log10(CFU/mL) | −1.56 log10(CFU/mL) | −0.86 log10(CFU/mL) | fell rapidly and remained suppressed; also recorded: falls rapidly and remains suppressed | failed to achieve its primary endpoint | at least 1 in 10 | 0.6 | safe and well tolerated | 0.58 | 0.41 | 0.59 | 0.61
